Type in all cases: biochemical
For one experiment, the target named is T1, JAK1 (Homo sapiens, UniProt P23458).
T1 construct: purchased Invitrogen Corporation, Carlsbad, Calif; IVGN PV4775
Kind of experiment: JAK1 Inhibition Assay (Omnia kinase fluorescence peptide substrate). To be noted: averaged IC50 ranges; 40 μM (Km app) or 1 mM ATP, 15 nM JAK1. From the text: (§1) The assays described in Examples A, B, C and D for the determination of Tyk2, JAK1, JAK2 and JAK3 kinase activity, respectively, utilized the Omnia® Kinase fluorescence peptide substrate-based technology (Invitrogen). The specific components of the assay mixture are described in Examples A, B, C and D. In these assays, Mg^2+ is chelated upon phosphorylation of the Omnia peptide by the kinase to form a bridge between the chelation-enhanced fluorophore Sox and the phosphate, resulting in an increase in fluorescence emission at 485 nm when excited at […]. The reactions were therefore read at excitation 360 nm and emission was measured at 485 nm every 50 seconds for 45 minutes using a PerkinElmer EnVision Multilabel Plate Reader.
(§2) The final buffer conditions for Tyk2, JAK1, JAK2, and JAK3 assays were as follows: 25 mM HEPES, pH 7.4, 10 mM MgCl2, 0.01% Triton X-100 and 1 mM DTT.
(§3) Compounds were prepared at 50× the final concentration in DMSO by conducting 3-fold serial dilutions from a 500-μM intermediate dilution to give a 10-point dosing curve having a high dose of 10 μM. Two-μL aliquots of these were transferred to a fresh plate for a ten-fold intermediate dilution with assay buffer. Five-μL aliquots of the diluted compounds were then transferred to 20-μL of assay mixtures described in Examples A, B, C and D for a final concentration of DMSO of 2%. A standard or reference compound was typically included on each assay plate to validate that plate. For each plate, percent of control (POC) values were calculated for each well according to the following equation: […]
(§4) IC50's were estimated from the POC's using a standard 4-parameter logistic model:
(§5) The IC50 is defined as the concentration of inhibitor at which the POC equals 50 for the fitted curve.
Compounds of Formula I were screened for their ability to inhibit JAK1 using the general enzyme inhibition assay method, in which the assay mixture contained 40 μM (Km app) or 1 mM ATP, 8 μM Omnia® Y12 peptide (Catalog #IVGN KPZ3121C; Invitrogen Corporation, Carlsbad, Calif.) and 15 nM JAK1 in a total volume of 20 μL. JAK1 was purchased from Invitrogen Corporation, Carlsbad, Calif. (catalog #IVGN PV4775).

A further experiment has as its target T2, JAK3 (Homo sapiens, UniProt P52333).
T2 construct: purchased Invitrogen Corporation, Carlsbad, Calif; IVGN PV4080
T2 sequence (P52333 1-1124): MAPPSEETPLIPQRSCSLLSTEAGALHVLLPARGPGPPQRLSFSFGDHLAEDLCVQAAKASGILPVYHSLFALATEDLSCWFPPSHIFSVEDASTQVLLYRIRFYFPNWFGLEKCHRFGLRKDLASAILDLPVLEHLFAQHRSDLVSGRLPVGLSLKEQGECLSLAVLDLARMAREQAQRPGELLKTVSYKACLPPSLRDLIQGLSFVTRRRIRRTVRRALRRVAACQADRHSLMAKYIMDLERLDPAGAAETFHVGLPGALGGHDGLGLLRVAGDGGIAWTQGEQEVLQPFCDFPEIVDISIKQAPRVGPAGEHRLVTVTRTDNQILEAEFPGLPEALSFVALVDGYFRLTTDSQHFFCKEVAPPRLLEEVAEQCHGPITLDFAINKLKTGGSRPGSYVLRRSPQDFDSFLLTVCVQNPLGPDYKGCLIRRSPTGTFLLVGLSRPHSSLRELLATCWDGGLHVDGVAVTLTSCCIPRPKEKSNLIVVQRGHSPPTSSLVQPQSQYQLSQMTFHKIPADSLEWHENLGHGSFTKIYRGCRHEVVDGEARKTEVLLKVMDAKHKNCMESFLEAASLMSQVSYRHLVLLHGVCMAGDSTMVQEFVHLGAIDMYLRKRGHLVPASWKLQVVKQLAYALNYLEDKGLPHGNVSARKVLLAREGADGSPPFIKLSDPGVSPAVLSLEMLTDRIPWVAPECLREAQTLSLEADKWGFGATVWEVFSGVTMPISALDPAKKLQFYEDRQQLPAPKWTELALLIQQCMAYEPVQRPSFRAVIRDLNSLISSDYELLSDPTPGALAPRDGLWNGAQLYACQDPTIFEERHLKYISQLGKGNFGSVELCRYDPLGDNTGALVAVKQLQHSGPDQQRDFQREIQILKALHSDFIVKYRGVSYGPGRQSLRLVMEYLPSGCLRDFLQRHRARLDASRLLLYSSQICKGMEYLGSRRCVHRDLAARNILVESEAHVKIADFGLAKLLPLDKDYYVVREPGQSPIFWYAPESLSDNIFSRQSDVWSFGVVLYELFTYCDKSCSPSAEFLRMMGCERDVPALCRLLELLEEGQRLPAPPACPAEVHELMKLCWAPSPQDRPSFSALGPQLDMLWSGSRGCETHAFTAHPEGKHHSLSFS
Kind of experiment: JAK3 Inhibition Assay (Omnia kinase fluorescence peptide substrate). To be noted: averaged IC50 ranges; 10 μM (Km app) or 1 mM ATP, 2.5 nM JAK3.
Description: as §1, §2, §3, §4, §5
Compounds of Formula I were screened for their ability to inhibit JAK3 using the general enzyme inhibition assay method, in which the assay mixture contained 10 μM (Km app) or 1 mM ATP, 10 μM Omnia® Y7 peptide (Catalog #IVGN KNZ3071C, Invitrogen Corporation, Carlsbad, Calif.) and 2.5 nM JAK3 in a total volume of 20 μL. JAK3 was purchased from Invitrogen Corporation, Carlsbad, Calif. (catalog #IVGN PV4080).

For another experiment, the target named is T3, JAK2 (Homo sapiens, UniProt O60674).
T3 construct: purchased Invitrogen Corporation, Carlsbad, Calif; IVGN PV4288
Kind of experiment: JAK2 Inhibition Assay (Omnia kinase fluorescence peptide substrate). As to conditions: averaged IC50 ranges; 25 μM (Km app) or 1 mM ATP, 5 nM JAK2.
Description: as §1, §2, §3, §4, §5
Compounds of Formula I were screened for their ability to inhibit JAK2 using the general enzyme inhibition assay method, in which the assay mixture contained 25 μM (Km app) or 1 mM ATP, 10 μM Omnia® Y7 peptide (Catalog #IVGN KNZ3071C, Invitrogen Corporation, Carlsbad, Calif.) and 5 nM JAK2 in a total volume of 20 μL. JAK2 was purchased from Invitrogen Corporation, Carlsbad, Calif. (catalog #IVGN PV4288).

In the next experiment the target is T4, Human Tyk2 kinase domain (Homo sapiens, UniProt P29597).
T4 construct: comprising amino acids 886 to 1187; His10 (10 histidine residues) (C, cleaved yes); made in house
T4 sequence (P29597 886-1187): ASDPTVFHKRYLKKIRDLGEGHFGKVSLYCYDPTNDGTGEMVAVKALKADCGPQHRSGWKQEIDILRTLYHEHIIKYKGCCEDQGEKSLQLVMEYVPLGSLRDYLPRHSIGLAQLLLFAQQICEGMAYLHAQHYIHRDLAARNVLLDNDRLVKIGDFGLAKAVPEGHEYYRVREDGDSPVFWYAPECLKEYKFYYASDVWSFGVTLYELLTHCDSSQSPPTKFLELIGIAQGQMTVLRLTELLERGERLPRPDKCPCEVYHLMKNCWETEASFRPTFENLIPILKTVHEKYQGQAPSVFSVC
The experiment can be described thus: Tyk2 Inhibition Assay (Omnia kinase fluorescence peptide substrate). To be noted: averaged IC50 ranges; 10 μM (Km app) or 1 mM ATP, 2 nM Tyk2.
Description: as §1, §2, §3, §4, §5
Compounds of Formula I were screened for their ability to inhibit Tyk2 using the general enzyme inhibition assay method, in which the assay mixture contained 10 μM (Km app) or 1 mM ATP, 8 μM Omnia® Y12 peptide (Catalog #IVGN KPZ3121C; Invitrogen Corporation, Carlsbad, Calif.) and 2 nM Tyk2 in a total volume of 20 μL. Human Tyk2 kinase domain, comprising amino acids 886 to 1187 with 10 additional histidine residues (histidine tag) on the carboxy terminus, was expressed and purified from bacculovirus in-house at Array BioPharma Inc. (Boulder, Colo.). The histidine tag was cleaved after purification using standard conditions.

pIC50: −log10 of the molar value.

T1 sequence (P23458 whole entry): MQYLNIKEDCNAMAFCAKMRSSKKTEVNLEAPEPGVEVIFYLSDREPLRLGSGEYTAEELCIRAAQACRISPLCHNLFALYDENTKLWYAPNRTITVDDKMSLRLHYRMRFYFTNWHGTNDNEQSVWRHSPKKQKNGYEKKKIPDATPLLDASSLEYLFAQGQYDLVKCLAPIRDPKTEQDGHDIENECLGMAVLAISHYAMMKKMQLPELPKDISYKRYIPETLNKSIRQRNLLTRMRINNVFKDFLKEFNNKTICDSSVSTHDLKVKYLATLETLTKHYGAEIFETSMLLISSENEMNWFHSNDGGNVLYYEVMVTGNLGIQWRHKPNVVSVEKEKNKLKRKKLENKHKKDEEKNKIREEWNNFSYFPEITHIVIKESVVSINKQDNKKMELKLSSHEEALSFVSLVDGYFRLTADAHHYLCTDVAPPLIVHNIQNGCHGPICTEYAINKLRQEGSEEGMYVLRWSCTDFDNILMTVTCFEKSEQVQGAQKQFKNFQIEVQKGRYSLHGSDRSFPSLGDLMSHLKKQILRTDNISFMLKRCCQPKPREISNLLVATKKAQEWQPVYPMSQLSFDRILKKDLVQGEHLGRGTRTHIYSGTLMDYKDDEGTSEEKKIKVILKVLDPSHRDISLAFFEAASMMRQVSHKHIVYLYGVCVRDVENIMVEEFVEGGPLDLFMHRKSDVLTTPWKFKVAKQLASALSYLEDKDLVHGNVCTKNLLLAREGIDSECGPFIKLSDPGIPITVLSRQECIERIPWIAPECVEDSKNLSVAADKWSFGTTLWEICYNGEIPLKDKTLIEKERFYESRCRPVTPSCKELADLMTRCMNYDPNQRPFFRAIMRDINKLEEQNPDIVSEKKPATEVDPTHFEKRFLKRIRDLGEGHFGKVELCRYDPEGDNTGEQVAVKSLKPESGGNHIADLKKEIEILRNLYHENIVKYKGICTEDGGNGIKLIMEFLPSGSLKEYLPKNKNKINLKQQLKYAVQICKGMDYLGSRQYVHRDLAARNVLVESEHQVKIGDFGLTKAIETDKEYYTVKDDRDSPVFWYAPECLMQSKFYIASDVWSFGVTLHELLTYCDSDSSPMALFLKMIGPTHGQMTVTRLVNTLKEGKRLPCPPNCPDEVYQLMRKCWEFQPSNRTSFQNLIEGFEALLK
T3 sequence (O60674 whole entry): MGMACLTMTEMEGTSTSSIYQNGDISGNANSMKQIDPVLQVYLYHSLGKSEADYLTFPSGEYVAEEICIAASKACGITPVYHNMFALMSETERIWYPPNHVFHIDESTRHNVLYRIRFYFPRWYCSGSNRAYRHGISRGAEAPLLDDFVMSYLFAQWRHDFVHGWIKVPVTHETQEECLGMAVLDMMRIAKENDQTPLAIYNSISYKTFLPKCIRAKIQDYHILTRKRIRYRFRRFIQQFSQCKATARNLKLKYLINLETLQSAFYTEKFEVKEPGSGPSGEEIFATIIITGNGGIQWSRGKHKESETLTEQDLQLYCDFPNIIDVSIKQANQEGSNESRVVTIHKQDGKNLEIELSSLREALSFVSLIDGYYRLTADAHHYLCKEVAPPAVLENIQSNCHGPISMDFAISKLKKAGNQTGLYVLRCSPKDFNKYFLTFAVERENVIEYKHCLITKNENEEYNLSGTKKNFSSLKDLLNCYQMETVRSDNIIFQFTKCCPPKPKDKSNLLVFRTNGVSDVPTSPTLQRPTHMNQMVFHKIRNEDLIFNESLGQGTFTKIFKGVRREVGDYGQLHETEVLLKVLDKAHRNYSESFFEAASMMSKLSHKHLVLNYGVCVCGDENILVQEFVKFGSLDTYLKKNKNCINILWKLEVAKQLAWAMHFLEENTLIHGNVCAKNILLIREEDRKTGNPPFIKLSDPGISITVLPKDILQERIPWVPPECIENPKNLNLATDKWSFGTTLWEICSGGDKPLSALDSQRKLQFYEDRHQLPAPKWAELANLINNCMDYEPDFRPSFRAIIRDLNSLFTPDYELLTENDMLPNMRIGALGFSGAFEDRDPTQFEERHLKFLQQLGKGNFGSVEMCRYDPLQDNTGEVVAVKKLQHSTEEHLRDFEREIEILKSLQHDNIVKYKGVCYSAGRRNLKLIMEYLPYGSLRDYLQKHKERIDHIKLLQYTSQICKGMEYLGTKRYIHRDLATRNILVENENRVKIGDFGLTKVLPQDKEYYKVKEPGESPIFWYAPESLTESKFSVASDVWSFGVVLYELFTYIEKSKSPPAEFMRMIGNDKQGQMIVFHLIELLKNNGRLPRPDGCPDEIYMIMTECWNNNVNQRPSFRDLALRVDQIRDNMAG

For `Cn1cc(-c2cc3nccn3c(-c3ccn(C4(CCF)CN(CC#N)C4)c3)n2)cn1` [Example 22, 2-(3-(2-fluoroethyl)-3-(3-(7-(1-methyl-1H-pyrazol-4-yl)imidazo[1,2-c]pyrimidin-5-yl)-1H-pyrrol-1-yl)azetidin-1-yl)acetonitrile], the pIC50 against JAK1 is 6.00 to 7.00; at JAK3, 6.00 to 7.00; at JAK2 it was 6.00 to 7.00; against Human Tyk2 kinase domain, 7.00 to 8.00.
With `Cn1cc(-c2cc3nccn3c(-c3ccn([C@H](CCF)[C@H]4CC4(F)F)c3)n2)cn1` [Example 23, 5-(1-((R)-1-((R)-2,2-difluorocyclopropyl)-3-fluoropropyl)-1H-pyrrol-3-yl)-7-(1-methyl-1H-pyrazol-4-yl)imidazo[1,2-c]pyrimidine], the pIC50 against JAK1 was 7.00 to 8.00; against JAK3, 7.00 to 8.00; against JAK2 it was 7.00 to 8.00; on Human Tyk2 kinase domain, greater than 8.00.
For `Cn1cc(-c2cc3nccn3c(-c3ccn([C@@H](CCF)[C@@H]4CC4(F)F)c3)n2)cn1` [Example 24, 5-(1-((S)-1-((S)-2,2-difluorocyclopropyl)-3-fluoropropyl)-1H-pyrrol-3-yl)-7-(1-methyl-1H-pyrazol-4-yl)imidazo[1,2-c]pyrimidine], the pIC50 against JAK1 is 7.00 to 8.00; on JAK3 it was 6.00 to 7.00; at JAK2, 7.00 to 8.00; on Human Tyk2 kinase domain, greater than 8.00.
Consider `Cn1cc(-c2cc3nccn3c(-c3ccn(C(CCF)C4CC4)c3)n2)cn1` (centres unmarked) [Example 25, 5-(1-(1-cyclopropyl-3-fluoropropyl)-1H-pyrrol-3-yl)-7-(1-methyl-1H-pyrazol-4-yl)imidazo[1,2-c]pyrimidine], for which the pIC50 is 7.00 to 8.00 on JAK1, 7.00 to 8.00 against JAK3, 7.00 to 8.00 against JAK2 and greater than 8.00 against Human Tyk2 kinase domain.
Regarding `Cn1cc(-c2cc3nccn3c(-c3ccn(C4(CCF)CN(S(=O)(=O)C(F)(F)F)C4)c3)n2)cn1` [Example 26, 5-(1-(3-(2-fluoroethyl)-1-((trifluoromethyl)sulfonyl)azetidin-3-yl)-1H-pyrrol-3-yl)-7-(1-methyl-1H-pyrazol-4-yl)imidazo[1,2-c]pyrimidine], the pIC50 on JAK1 is 7.00 to 8.00; on JAK3, 7.00 to 8.00; against JAK2, 7.00 to 8.00; against Human Tyk2 kinase domain, greater than 8.00.
Take `C=CC1(n2ccc(-c3nc(-c4cnn(C)c4)cc4nccn34)c2)CN(S(=O)(=O)C(F)(F)F)C1` [Example 27, 7-(1-methyl-1H-pyrazol-4-yl)-5-(1-(1-((trifluoromethyl)sulfonyl)-3-vinylazetidin-3-yl)-1H-pyrrol-3-yl)imidazo[1,2-c]pyrimidine]: the pIC50 against JAK1 is 7.00 to 8.00; against JAK3, 7.00 to 8.00; on JAK2 it was 7.00 to 8.00; at Human Tyk2 kinase domain it was greater than 8.00.
With `Cn1cc(-c2cc3nccn3c(-c3ccn([C@H](CCF)[C@@H]4CC4(F)F)c3)n2)cn1` [Example 28, 5-(1-((R)-1-((S)-2,2-difluorocyclopropyl)-3-fluoropropyl)-1H-pyrrol-3-yl)-7-(1-methyl-1H-pyrazol-4-yl)imidazo[1,2-c]pyrimidine], the pIC50 is 6.00 to 7.00 on JAK1, 6.00 to 7.00 at JAK3, 7.00 to 8.00 against JAK2 and 7.00 to 8.00 against Human Tyk2 kinase domain.
For the compound `Cn1cc(-c2cc3nccn3c(-c3cnn(C(CCCF)C4CC4)c3)n2)cn1` (centres unmarked) [Example 30, 5-(1-(1-cyclopropyl-4-fluorobutyl)-1H-pyrazol-4-yl)-7-(1-methyl-1H-pyrazol-4-yl)imidazo[1,2-c]pyrimidine], the pIC50 against JAK1 was 6.00 to 7.00; against JAK3 it was 6.00 to 7.00; against JAK2, 7.00 to 8.00; at Human Tyk2 kinase domain it was 7.00 to 8.00.
For `COCCC(C1CC1(F)F)n1cc(-c2nc(-c3cnn(C)c3)cc3nccn23)cn1` (centres unmarked) [Example 31], the pIC50 at JAK1, at JAK3, on JAK2 and against Human Tyk2 kinase domain was 6.00 to 7.00 throughout.
Take `Cn1cc(-c2cc3nccn3c(-c3cnn(C4(CC=C(F)F)CN(S(=O)(=O)C(F)(F)F)C4)c3)n2)cn1` [Example 32, 5-(1-(3-(3,3-difluoroallyl)-1-((trifluoromethyl)sulfonyl)azetidin-3-yl)-1H-pyrazol-4-yl)-7-(1-methyl-1H-pyrazol-4-yl)imidazo[1,2-c]pyrimidine]: the pIC50 against JAK1 is greater than 8.00; on JAK3, 7.00 to 8.00; at JAK2, greater than 8.00; on Human Tyk2 kinase domain, greater than 8.00.
As for `CCOCCC1(n2cc(-c3nc(-c4cnn(C)c4)cc4nccn34)cn2)CN(S(=O)(=O)C(F)(F)F)C1` [Example 33, 5-(1-(3-(2-ethoxyethyl)-1-((trifluoromethyl)sulfonyl)azetidin-3-yl)-1H-pyrazol-4-yl)-7-(1-methyl-1H-pyrazol-4-yl)imidazo[1,2-c]pyrimidine], the pIC50 is 7.00 to 8.00 against JAK1, 6.00 to 7.00 at JAK3, 7.00 to 8.00 on JAK2 and 7.00 to 8.00 against Human Tyk2 kinase domain.

The values are drawn from patent US20140228349A1, “5,7-SUBSTITUTED-IMIDAZO[1,2-C]PYRIMIDINES” (Array BioPharma Inc., priority 2011, published 2014).
